Assay results reported in BigSolDB 2.1.

Details: 298.15 K

`O=C(C(=O)c1ccccc1)c1ccccc1` gave a solubility (mole fraction) (in 2,2,2-trifluoroethanol) of 0.0352, a solubility (mole fraction) (in 2-butanone) of 0.184 and a solubility (mole fraction) (in 2-methyl-1-pentanol) of 0.0139. The solubility (mole fraction) (in 3,7-dimethyl-1-octanol) was 0.0173, the solubility (mole fraction) (in DMSO) was 0.0228 and the solubility (mole fraction) (in acetone) was 0.16. It also gave a solubility (mole fraction) (in acetonitrile) of 0.0635, a solubility (mole fraction) (in butyronitrile) of 0.151 and a solubility (mole fraction) (in chlorobenzene) of 0.201. The solubility (mole fraction) (in cyclohexanone) was 0.241, the solubility (mole fraction) (in diethyl ether) was 0.0674 and the solubility (mole fraction) (in diisopropyl ether) was 0.0309. The solubility (mole fraction) (in methyl acetate) was 0.152, the solubility (mole fraction) (in n-decane) was 0.00855 and the solubility (mole fraction) (in n-decanol) was 0.0212. The solubility (mole fraction) (in n-hexadecane) was 0.0118, the solubility (mole fraction) (in propionitrile) was 0.129 and the solubility (mole fraction) (in propylene carbonate) was 0.094. For the same molecule, the solubility (mole fraction) (in tert-butanol) was 0.0106.
